Measured values from the NIST ThermoML archive (doi:10.1021/je5008372).
Numbers after ± are expanded uncertainties.

Assays:
[1] = refractive index (Na D-line) (dimensionless); mn = molality of the nth substance listed, in mol/kg; conditions: 86.8 kPa, Liquid, Standard Abbe refractometry
[2] = mn = molality of the nth substance listed, in mol/kg; conditions: 86.8 kPa, Liquid; for viscosity: Capillary tube (Ostwald / Ubbelohde) method; for speed of sound: Sing-around technique in a fixed-path interferometer; for mass density: Vibrating tube method
[3] = refractive index (Na D-line) (dimensionless); conditions: 86.8 kPa, Liquid, Standard Abbe refractometry
[4] = 86.8 kPa, Liquid; for viscosity: Capillary tube (Ostwald / Ubbelohde) method; for speed of sound: Sing-around technique in a fixed-path interferometer; for mass density: Vibrating tube method

CCCCn1cc[n+](C)c1.[Br-] [1-butyl-3-methylimidazolium bromide] + CC#N
Conditions | mass density, [2] [kg/m3] | refractive index, [1] | speed of sound, [2] [m/s] | viscosity, [2] [mPa·s]
288.15 K, m1 = 0.1046 | 796.218 ± 0.17 | 1.3492 ± 0.004 | 1323.5 ± 1.2 | 0.4 ± 0.01
288.15 K, m1 = 0.2021 | 803.662 ± 0.2 | 1.3528 ± 0.004 | 1327.1 ± 1.2 | 0.421 ± 0.01
288.15 K, m1 = 0.2996 | 810.75 ± 0.17 | 1.3557 ± 0.004 | 1330.3 ± 1.2 | 0.44 ± 0.01
298.15 K, m1 = 0.1046 | 785.312 ± 0.18 | 1.3449 ± 0.004 | 1283.2 ± 1.2 | 0.363 ± 0.01
298.15 K, m1 = 0.2021 | 792.989 ± 0.17 | 1.3479 ± 0.004 | 1287.1 ± 1.2 | 0.38 ± 0.01
298.15 K, m1 = 0.2996 | 800.167 ± 0.17 | 1.3509 ± 0.004 | 1290.3 ± 1.2 | 0.398 ± 0.01
308.15 K, m1 = 0.1046 | 774.491 ± 0.18 | 1.3402 ± 0.004 | 1243.2 ± 1.2 | 0.331 ± 0.01
308.15 K, m1 = 0.2021 | 782.263 ± 0.18 | 1.3429 ± 0.004 | 1247.2 ± 1.2 | 0.346 ± 0.01
308.15 K, m1 = 0.2996 | 789.528 ± 0.18 | 1.3462 ± 0.004 | 1250.6 ± 1.2 | 0.361 ± 0.01
318.15 K, m1 = 0.1046 | 763.59 ± 0.19 | 1.3359 ± 0.004 | 1203.1 ± 1.2 | 0.304 ± 0.01
318.15 K, m1 = 0.2021 | 771.427 ± 0.19 | 1.3381 ± 0.004 | 1207.3 ± 1.2 | 0.318 ± 0.01
318.15 K, m1 = 0.2996 | 778.947 ± 0.18 | 1.3402 ± 0.004 | 1210.8 ± 1.2 | 0.331 ± 0.01

CC#N [acetonitrile]
Conditions | mass density, [4] [kg/m3] | refractive index, [3] | speed of sound, [4] [m/s] | viscosity, [4] [mPa·s]
288.15 K | 787.395 ± 0.15 | 1.3461 ± 0.004 | 1319.1 ± 1.2 | 0.388 ± 0.01
298.15 K | 776.615 ± 0.16 | 1.3412 ± 0.004 | 1278.6 ± 1.2 | 0.344 ± 0.01
308.15 K | 765.81 ± 0.17 | 1.3371 ± 0.004 | 1238.3 ± 1.2 | 0.313 ± 0.01
318.15 K | 754.851 ± 0.17 | 1.3327 ± 0.004 | 1198.2 ± 1.2 | 0.289 ± 0.01
